Experimental findings from patent US7670613B2, “Androgen modulators” (Pfizer Inc., priority 2004, dated 2010) are described below.

Each structure is given as a SMILES string.

This test has as its target T1, hAR (Homo sapiens, UniProt P10275).
T1 construct: made in house; host or cells: baculovirus/Sf9 insect cells
T1 sequence (P10275 1-920): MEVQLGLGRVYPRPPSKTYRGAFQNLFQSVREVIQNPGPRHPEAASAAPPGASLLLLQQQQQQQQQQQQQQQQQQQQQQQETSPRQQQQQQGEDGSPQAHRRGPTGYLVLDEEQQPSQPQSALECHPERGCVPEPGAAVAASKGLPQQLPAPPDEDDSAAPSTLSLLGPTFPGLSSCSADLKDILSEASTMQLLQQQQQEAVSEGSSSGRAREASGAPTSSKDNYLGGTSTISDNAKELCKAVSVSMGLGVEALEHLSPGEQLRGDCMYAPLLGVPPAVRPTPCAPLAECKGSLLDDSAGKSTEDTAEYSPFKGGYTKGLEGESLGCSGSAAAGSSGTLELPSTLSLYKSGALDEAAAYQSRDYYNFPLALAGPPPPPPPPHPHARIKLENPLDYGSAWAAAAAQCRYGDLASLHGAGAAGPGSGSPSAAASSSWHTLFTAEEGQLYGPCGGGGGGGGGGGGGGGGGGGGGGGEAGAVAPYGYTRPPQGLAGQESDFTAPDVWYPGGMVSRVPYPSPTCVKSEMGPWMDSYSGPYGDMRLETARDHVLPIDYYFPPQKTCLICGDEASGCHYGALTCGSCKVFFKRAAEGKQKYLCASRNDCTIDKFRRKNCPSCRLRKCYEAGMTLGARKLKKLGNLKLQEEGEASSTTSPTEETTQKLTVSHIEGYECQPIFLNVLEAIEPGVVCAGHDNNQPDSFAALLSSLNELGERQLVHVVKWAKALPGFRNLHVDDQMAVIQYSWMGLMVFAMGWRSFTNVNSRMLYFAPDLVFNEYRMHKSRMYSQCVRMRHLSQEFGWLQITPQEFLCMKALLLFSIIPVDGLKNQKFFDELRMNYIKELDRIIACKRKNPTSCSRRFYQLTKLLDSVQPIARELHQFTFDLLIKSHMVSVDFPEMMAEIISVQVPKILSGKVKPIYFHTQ
Kind of test: Competitive binding analysis on baculovirus/Sf9 generated hAR extracts with 3H-DHT tracer. The note with it: AR Binding IC50, hAR extract, 1 nM 3H-DHT, one hour at 4° C.; mean of multiple tests.
With `N#Cc1ccc(O[C@@H]2CCCC[C@H]2C#N)cc1C(F)(F)F` (single isomer, unassigned) [Example 72, (trans)-(−)-4-(2-Cyano-cyclohexyloxy)-2-trifluoromethyl-benzonitrile], the IC50 (as a rule, the concentration at which inhibition is half-maximal) is 43 nM.

On to `N#Cc1ccc(O[C@@H]2CCCCC2C#N)cc1C(F)(F)F` (stereo in doubt) [Example 14, -4-(2-Cyano-cyclohexyloxy)-2-trifluoromethyl-benzonitrile], for which the IC50 came to 58 nM.

Turning to `CC1CCCCC1Oc1ccc(C#N)c(C(F)(F)F)c1` (stereo not drawn) [Example 8, 4-(2-Methyl-cyclohexyloxy)-2-trifluoromethyl-benzonitrile], the IC50 stood at 106 nM.
